Data reported in patent US20260234115A1, “LIPID COMPOUNDS, COMPOSITIONS, AND USES THEREOF” (Liberate Bio, Inc., priority 2023, published 2026).
Marks after values point to notes of the source that are not given here.

Assays:
mouse organs = test: In vivo activity screening in mice: organ mean total flux (p/s) of luciferase activity after injection of F2 LNP pools (Table 6, FIG. 7A-7C); settings: luciferase mRNA
In short: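 Luciferase output per organ is reported as mean total flux (p/s) from IVIS regions of interest. Organs were collected from perfused C57BL/6J mice and imaged 10-15 min after s.c. D-luciferin, 4-6 h after i.v. dosing. Dosing was 0.25-3 mg/kg luciferase mRNA in F2 LNP pools.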

[1] = Plate-based fluorescence (RiboGreen) assay: nucleic acid cargo content and encapsulation efficiency of LNPs; format: physicochemical; settings: for EE (%) N/P:3 / EE (%) N/P:6: LNP
Description: (§1) Lipids and active ingredients (e.g., RNA, DNA, etc.) were assembled into LNPs using microfluidic mixing. An ethanol phase was prepared by solubilizing ionizable lipids (i.e., lipid compounds), phospholipids (e.g., DSPC), cholesterol, and PEG lipids in ethanol, at predetermined mol % ratios given in Table 2. An aqueous phase was prepared by diluting a nucleic acid cargo (e.g., firefly luciferase mRNA) in an acidified buffer (pH 4.0 citrate buffer, 50 mM). A chip with microfluidic mixing architecture (e.g., toroidal mixer) was used to mix the two phases at predetermined flow rate ratios (e.g., 9 ml/min for the aqueous phase and 3 ml/min for the ethanol phase). Resulting LNPs comprising the lipids and encapsulating the nucleic acid cargo were dialyzed against PBS pH 7.4 for 2 hours at room temperature in a 20 kDa MWCO dialysis membrane. Then, PBS was refreshed to continue dialysis overnight at 2-8 TC. Upon completion of the buffer exchange, LNPs were optionally concentrated using a ultracentrifugal unit with a 10-100 kDa MWCO membrane.
c. Plate-Based Fluorescence (RiboGreen) Assay
Nucleic acid cargos in the LNPs were quantified by RiboGreen assay, against a nucleic acid standard curve. LNPs encapsulating nucleic acid cargo were mixed with 1× Tris-EDTA (TE) and 2% triton in TE, separately, to achieve dilutions required by the assay. Then, the samples were heated at 30° C. and vortexed at 300 rpm. Samples were plated into 96-well plates and RiboGreen reagent was added into each well. Following incubation in the dark, fluorescence was measured from the wells, and plotted against the standard curve. Nucleic acid concentration obtained from the Triton-treated samples were used for total cargo concentration quantification. Only TE diluted sample fluorescence values were used to determine the non-encapsulated (free) cargo, and their ratio was used to determine the encapsulation efficiency (EE %).

[2] = Dynamic light scattering: LNP particle size and PDI; format: physicochemical; settings: for PDI N/P:3 / Size (nm) N/P:3 / PDI N/P:6 / Size (nm) N/P:6: LNP
Description: as §1
d. Dynamic Light Scattering
LNPs were diluted with PBS pH 7.4 to predetermined dilution ranges based on the process step and LNP concentration. Following mixing, the particle size and PDI were measured by a dynamic light scattering instrument.

[3] = LNP compositions for in vivo mouse study, four formulations (F1-F4) pooled, or pools of four compounds
[4] = LNP compositions for in vivo mouse study, four formulations (F1-F4) of the lipid compound pooled, or pools of four compounds (sixteen compositions)
[5] = LNP compositions for Formulation F2 Study

SMILES	Organ Mean Total Flux Femur (mouse organs; Mouse 1, dose 0.3 mg/kg)	Organ Mean Total Flux Heart (mouse organs; Mouse 1, dose 0.3 mg/kg)	Organ Mean Total Flux Kidney (mouse organs; Mouse 1, dose 0.3 mg/kg)	Organ Mean Total Flux Liver (mouse organs; Mouse 1, dose 0.3 mg/kg)	Organ Mean Total Flux Lung (mouse organs; Mouse 1, dose 0.3 mg/kg)	Organ Mean Total Flux Muscle (mouse organs; Mouse 1, dose 0.3 mg/kg)	Organ Mean Total Flux Pancreas (mouse organs; Mouse 1, dose 0.3 mg/kg)	Organ Mean Total Flux Spleen (mouse organs; Mouse 1, dose 0.3 mg/kg)	EE % [1, 3] [%]	mRNA Content [1, 3] [µg/mL]	EE (%) N/P:6 ([1]; Formulation F1, N/P 6) [%]	EE (%) N/P:6 ([1]; Formulation F2, N/P 6) [%]	EE (%) N/P:6 ([1]; Formulation F3, N/P 6) [%]	EE (%) N/P:6 ([1]; Formulation F4, N/P 6) [%]	Particle Size (nm) [2, 4] [nm]	PDI [2, 3]	PDI N/P:6 ([2]; Formulation F1, N/P 6)	Size (nm) N/P:6 ([2]; Formulation F1, N/P 6) [nm]	PDI N/P:6 ([2]; Formulation F2, N/P 6)	Size (nm) N/P:6 ([2]; Formulation F2, N/P 6) [nm]	further results
CCCCC/C=C\C/C=C\CCCCCCCC(=O)OCC(COC(=O)CCCCCCC/C=C\C/C=C\CCCCC)(COC(=O)CCC(CCCCCC)OC(=O)NCCN1CCCC1)COC(=O)CCC(OCCCCCCCC)OCCCCCCCC (centres unmarked) [Compound 6, [2-(4,4-dioctoxybutanoyloxymethyl)-2-[[(9Z,12Z)-octadeca-9,12-dienoyl]oxymethyl]-3-[4-(2-pyrrolidin-1-ylethylcarbamoyloxy)decanoyloxy]propyl](9Z,12Z)-octadeca-9,12-dienoate]	6.1 p/s (×10^6)	2.1 p/s (×10^6)	1.3 p/s (×10^6)	2966 p/s (×10^6)	17.6 p/s (×10^6)	8.3 p/s (×10^6)	2.1 p/s (×10^6)	14.1 p/s (×10^6)	99	100.1	100	100	100	100	77.9	0.107	0.172	69 ± 3	0.012	83 ± 1	EE (%) N/P:3 ([1]; Formulation F1, N/P 3): 99%; EE (%) N/P:3 ([1]; Formulation F2, N/P 3): 99%; EE (%) N/P:3 ([1]; Formulation F3, N/P 3): 95%; EE (%) N/P:3 ([1]; Formulation F4, N/P 3): 98%; PDI N/P:3 ([2]; Formulation F1, N/P 3): 0.09; Size (nm) N/P:3 ([2]; Formulation F1, N/P 3): 77 ± 2 nm; PDI N/P:3 ([2]; Formulation F2, N/P 3): 0.027; Size (nm) N/P:3 ([2]; Formulation F2, N/P 3): 89 ± 2 nm; PDI N/P:3 ([2]; Formulation F3, N/P 3): 0.059; Size (nm) N/P:3 ([2]; Formulation F3, N/P 3): 105 ± 5 nm; PDI N/P:6 ([2]; Formulation F3, N/P 6): 0.078; Size (nm) N/P:6 ([2]; Formulation F3, N/P 6): 85 ± 1 nm; PDI N/P:3 ([2]; Formulation F4, N/P 3): 0.084; Size (nm) N/P:3 ([2]; Formulation F4, N/P 3): 65 ± 1 nm; PDI N/P:6 ([2]; Formulation F4, N/P 6): 0.081; Size (nm) N/P:6 ([2]; Formulation F4, N/P 6): 63 ± 1 nm
CCCCC/C=C\CCOC(=O)CCCCCC(=O)OCC(COC(=O)CCCCCC(=O)OCC/C=C\CCCCC)(COC(=O)CCCCCC(=O)OCC/C=C\CCCCC)COC(=O)CCC(CCCCCC)OC(=O)NCCN1CCCC1 (centres unmarked) [Compound 7, O7-[2,2-bis[[7-[(Z)-non-3-enoxy]-7-oxo-heptanoyl]oxymethyl]-3-[4-(2-pyrrolidin-1-ylethylcarbamoyloxy)decanoyloxy]propyl]O1-[(Z)-non-3-enyl]heptanedioate]	2.4 p/s (×10^6)	0.2 p/s (×10^6)	0.7 p/s (×10^6)	140.0 p/s (×10^6)	4.9 p/s (×10^6)	2.5 p/s (×10^6)	1.8 p/s (×10^6)	29.0 p/s (×10^6)	96	84	99	97	98	98	89.3	0.14	0.08	75 ± 1	0.11	97 ± 5	Organ Mean Total Flux Femur (mouse organs; Mouse 14, dose 0.5 mg/kg): 5.7 p/s (×10^6); Organ Mean Total Flux Heart (mouse organs; Mouse 14, dose 0.5 mg/kg): 0.9 p/s (×10^6); Organ Mean Total Flux Kidney (mouse organs; Mouse 14, dose 0.5 mg/kg): 3.2 p/s (×10^6); Organ Mean Total Flux Liver (mouse organs; Mouse 14, dose 0.5 mg/kg): 338.0 p/s (×10^6); Organ Mean Total Flux Lung (mouse organs; Mouse 14, dose 0.5 mg/kg): 14.5 p/s (×10^6); Organ Mean Total Flux Muscle (mouse organs; Mouse 14, dose 0.5 mg/kg): 48.2 p/s (×10^6); Organ Mean Total Flux Pancreas (mouse organs; Mouse 14, dose 0.5 mg/kg): 1.5 p/s (×10^6); Organ Mean Total Flux Spleen (mouse organs; Mouse 14, dose 0.5 mg/kg): 11.8 p/s (×10^6); EE % [1, 5]: 98%; PDI [2, 5]: 0.086; Particle Size (nm) [2, 5]: 120.8 nm; PDI N/P:6 ([2]; Formulation F3, N/P 6): 0.09; Size (nm) N/P:6 ([2]; Formulation F3, N/P 6): 99 ± 2 nm; PDI N/P:6 ([2]; Formulation F4, N/P 6): 0.21; Size (nm) N/P:6 ([2]; Formulation F4, N/P 6): 75 ± 3 nm
